From PMC3718742, “Proline Dehydrogenase Regulates Redox State and Respiratory Metabolism in Trypanosoma cruzi” (PLoS ONE, 2013)

B1: recombinant TcPRODH (Trypanosoma cruzi strain CL Brener) (protein)
chain: SPTSRKIQPVNFKDDTIFRKKSLWWLVRALVVLRICQISFFSRNAVYLMKKSESVLGPFLIYNTLVKMTAYGHFCAGEDERGLKNTVKALERQGIGSVLDYAAEADVAGFAPPPGLEEAPNLSMASLVHKTTVNYSSHEELYDENMKLYVMCVMHASLNQPVNGVGLAAVKVTGMCDPQLLARVSAILHSVHAGWVQNFTNEKPPPIEECRVVMGTNKEYQLYITYDQLRKGLTAYGSARKYTEEEAEAVIKALDEKNEGKVNYYQFKKVVSEAVLSMEPTPVQKLIVEKLPKLTEEERELWRALHRRLSVIVRTAKDLRVRVLFDAEQTFYQVAIDNIVLQFQRQFNLEEPTVYNTYQCYLTYTEDRVFNDLTRSELEGWVWGGKVVRGAYMVQERETASKYSYKSPVWPTYEETNACYQACARRILREFTRLPNTPFEVLFGTHNKESVEEISEAILKLPPVKGLAVFAQLYGMADHLTIPLQKAGFRVFKYLPYGPVKETIHYLGRRATENASVLANGGSEEVDLMRKELRRRLFCFKSYREKDVKA

What was measured:
recombinant TcPRODH = target: T1, recombinant TcPRODH (Trypanosoma cruzi, UniProt Q4CVA1); assay: UV-visible spectrum of purified enzyme; cofactor dependence of activity; format: biochemical; conditions: flavin peaks at 370 and 450 nm; NAD+ and NADP+ not accepted
T1 construct: gene Tc00.1047053506411.30; dimer (native gel of mitochondria, 140 kDa)
T1 sequence (Q4CVA1 17-566): B1 chain

purified protein = substrate: O=C(O)[C@@H]1CCCN1; assay: purified protein; conditions: DCPIP/phenazine methosulfate acceptor, MOPS, MgCl2, glycerol, pH 7.5, error printed as ±1.69 in text (b1)

Molecule	UV-visible spectrum of purified enzyme; cofactor dependence of activity (recombinant TcPRODH)	Km (purified protein) [µM]
Cc1cc2nc3c(=O)[nH]c(=O)nc-3n(C[C@H](O)[C@H](O)[C@H](O)COP(=O)(O)OP(=O)(O)OC[C@H]3O[C@@H](n4cnc5c(N)ncnc54)[C@H](O)[C@@H]3O)c2cc1C [FAD]	purified enzyme had a typical flavoprotein absorbance spectrum, characterized by two flavin absorption peaks	–
B1	–	16.58 ± 6.08
